For one series, the target named is T1, Kir3.1/Kir3.4 (Homo sapiens, UniProt P48544+P48549).
T1 sequence (P48549 whole entry): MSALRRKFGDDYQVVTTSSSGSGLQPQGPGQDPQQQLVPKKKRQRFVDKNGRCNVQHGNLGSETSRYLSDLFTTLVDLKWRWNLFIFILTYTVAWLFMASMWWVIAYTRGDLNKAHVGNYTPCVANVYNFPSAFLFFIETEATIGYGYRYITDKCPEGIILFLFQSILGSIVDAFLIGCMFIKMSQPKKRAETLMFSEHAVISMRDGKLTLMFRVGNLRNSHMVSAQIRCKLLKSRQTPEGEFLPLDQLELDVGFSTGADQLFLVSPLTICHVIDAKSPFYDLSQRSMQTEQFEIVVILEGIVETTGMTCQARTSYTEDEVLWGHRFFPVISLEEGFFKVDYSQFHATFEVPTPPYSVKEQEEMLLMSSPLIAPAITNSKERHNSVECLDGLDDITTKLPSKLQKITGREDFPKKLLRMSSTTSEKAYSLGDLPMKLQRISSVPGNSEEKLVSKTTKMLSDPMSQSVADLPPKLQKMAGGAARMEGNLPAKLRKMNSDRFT
T1 sequence (P48544 whole entry): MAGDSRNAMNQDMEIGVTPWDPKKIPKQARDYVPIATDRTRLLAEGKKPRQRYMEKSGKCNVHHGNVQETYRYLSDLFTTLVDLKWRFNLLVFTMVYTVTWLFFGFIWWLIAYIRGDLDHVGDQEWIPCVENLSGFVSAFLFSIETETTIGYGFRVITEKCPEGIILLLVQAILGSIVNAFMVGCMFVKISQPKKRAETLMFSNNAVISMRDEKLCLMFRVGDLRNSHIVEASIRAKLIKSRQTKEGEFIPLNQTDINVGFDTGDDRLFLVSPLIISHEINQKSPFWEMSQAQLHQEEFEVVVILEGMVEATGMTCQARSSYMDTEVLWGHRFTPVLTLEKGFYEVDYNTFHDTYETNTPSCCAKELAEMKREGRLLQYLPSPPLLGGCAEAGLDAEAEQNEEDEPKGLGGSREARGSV
As to the kind of experiment: Activation of GIRK1/4 (unknown origin) by thallium-flux based assay. In kind it is protein-complex assay.

Series [1] concerns the target Kir3.1/Kir3.2 (Homo sapiens) (UniProt P48549+P48051). As to the kind of experiment: Activation of GIRK1/2 (unknown origin) by thallium-flux based assay relative to ML297. The series is classed as protein-complex assay.
In series [2] the target is Kir3.1/Kir3.4 (Homo sapiens) (UniProt P48549+P48544). Briefly: Activation of GIRK1/4 (unknown origin) by thallium-flux based assay relative to ML297. The series is classed as protein-complex assay.
Another series has as its target T2, Kir3.1/Kir3.2 (Homo sapiens, UniProt P48051+P48549).
T2 sequence (P48549 whole entry): T1 sequence (P48549 whole entry)
T2 sequence (P48051 whole entry): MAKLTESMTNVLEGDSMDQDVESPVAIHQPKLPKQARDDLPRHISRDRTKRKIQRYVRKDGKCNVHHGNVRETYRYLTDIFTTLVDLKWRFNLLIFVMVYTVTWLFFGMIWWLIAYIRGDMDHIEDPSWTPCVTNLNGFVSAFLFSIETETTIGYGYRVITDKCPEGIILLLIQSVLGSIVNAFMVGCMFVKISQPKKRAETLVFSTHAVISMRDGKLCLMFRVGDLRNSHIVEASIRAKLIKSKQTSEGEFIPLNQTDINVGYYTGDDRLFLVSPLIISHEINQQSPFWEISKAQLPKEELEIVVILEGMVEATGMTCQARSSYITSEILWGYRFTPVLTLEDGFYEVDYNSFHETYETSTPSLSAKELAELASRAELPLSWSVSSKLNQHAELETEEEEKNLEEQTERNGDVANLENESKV
Briefly: Activation of GIRK1/2 (unknown origin) by thallium-flux based assay. The series is classed as protein-complex assay.

Series [3] deals with Kir3.2/Kir3.3 (Homo sapiens) (UniProt P48051+Q92806). Briefly: Modulation of GIRK2/3 (unknown origin) by thallium-flux based assay. The series is classed as protein-complex assay.
Series [4] is described as follows: Stability in rat microsomes assessed as compound remaining measured after 90 mins. The series is classed as ADME, Microsome. The following applies: read-out: Stability.

Active and inactive are the calls of the source. No cut-off for these calls is given here.

`CC1CC1c1cc(NC(=O)Nc2ccc(C(F)(F)F)cc2)n(CC(F)(F)F)n1` (stereo unspecified): the EC50 (usually the concentration giving half of the maximal effect) at Kir3.1/Kir3.4 turned out to be 2000 nM; at Kir3.1/Kir3.2 it was 310 nM. The Efficacy in series [1] worked out at 70%; in series [2], 100%.

With `CC1CC1c1cc(NC(=O)Nc2ccc(Cl)cc2)n(CC(F)(F)F)n1` (stereo unspecified), the half-maximal effective concentration (EC50) on Kir3.1/Kir3.4 is 1800 nM; at Kir3.1/Kir3.2 it was 150 nM. For the same compound, the Efficacy in series [1] came to 66%; in series [2], 100%.

Consider `Cc1ccc(NC(=O)Nc2cc(C3CC3C)nn2CC(F)(F)F)cc1` (stereo unspecified), for which the EC50 on Kir3.1/Kir3.4 was 2300 nM; at Kir3.1/Kir3.2, 270 nM. The Efficacy in series [1] stood at 67%; in series [2] it was 100%.

Consider `Cc1cc(NC(=O)Nc2cc(C3CC3C)nn2CC(F)(F)F)ccc1F` (stereo unspecified), for which the EC50 at Kir3.1/Kir3.4 came to 1200 nM; on Kir3.1/Kir3.2, 700 nM. The Efficacy was 81% in series [1] and 35% in series [2].

As for `Cc1cc(NC(=O)Nc2ccc(F)c(F)c2)n(-c2ccccc2)n1`, the result in series [3] was inactive. In addition, the remaining at […] in series [4] is 45%.

As for `CC1CC1c1cc(NC(=O)Nc2cccc(F)c2)n(CC(F)(F)F)n1` (stereo unspecified), the EC50 on Kir3.1/Kir3.4 is 1000 nM; at Kir3.1/Kir3.2, 310 nM. Moreover, the Efficacy in series [1] came to 101%; in series [2], 100%.

Take `CC1CC1c1cc(NC(=O)Nc2ccc(F)c(F)c2)n(CC(F)(F)F)n1` (stereo unspecified): the concentration for a half-maximal effect (EC50) at Kir3.1/Kir3.4 and at Kir3.1/Kir3.2 was 4900 nM each time. Besides, the Efficacy was found to be 100% in series [1] and 112% in series [2].

Source of the values: ChEMBL document CHEMBL3352610, “Discovery of potent and selective GIRK1/2 modulators via 'molecular switches' within a series of 1-(3-cyclopropyl-1-phenyl-1H-pyrazol-5-yl)ureas” (Bioorg Med Chem Lett, 2014).
